In US11242344B2, “(4-hydroxypyrrolidin-2-yl)-heterocyclic compounds and methods of use thereof” (Genentech, Inc., priority 2017, dated 2022):

Assays:
MYC expression = experiment: Inhibition of MYC expression in MV-4-11 cells; assay type: cell-based; settings: for Maximum Inhibition (%): maximum inhibition of MYC expression; for IC50: QuantiGene 2.0, geometric mean
Procedure: Pharmacologic inhibition of MYC is achievable through targeting BET bromodomains through small molecule binder or degrader mechanisms. Such inhibitors may have clinical utility given the widespread pathogenetic role of MYC in cancer. See, e.g., Mertz J, et al., “Targeting MYC dependence in cancer by inhibiting BET bromodomains,” (2011) Proc. Natl. Acad. Sci. USA, Vol. 108 (40), pp. 16669-16674.
To determine the inhibition of MYC expression, MV-4-11 cells (ATCC) were plated at 10,000 cells per well in 96-well plates in RPMI1640 media supplemented with 10% fetal bovine serum and 2 mM L-glutamine. Test compounds diluted in DMSO were transferred to the cell plates, keeping final DMSO concentration consistent at 0.1%, and incubated for 4 h at 37° C. Lysis and analysis for MYC expression were carried out using QuantiGene 2.0 reagents (Affymetrix/eBioscience, probe set cat #SA-50182) and following the vendor's instructions. Luminescence was read using an EnVision plate reader (PerkinElmer) and IC50s generated in Genedata Screener using a 4-parameter non-linear regression fit.
Effective degraders will surpass this and inhibit >95% of MYC, thus following the maximum inhibition within this assay provides valuable SAR. Where more than one measurement was performed for the same assay, the value reported is the geometric mean of all values.

BRD4 = BRD4 (Homo sapiens (Human), UniProt O60885); experiment: BRD4 degradation assay in EOL-1 cells, high content fluorescence imaging; assay type: cell-based; settings: 4 hours; for DC50: BRD4 immunofluorescence, read-out: EOL-1 EC50; for EOL-1 Sinf (%): maximum degradation, percent change in protein level (-100% = complete loss)
Procedure: PC3 (Steap-1) prostate cancer cells: PC3 (Steap-1) prostate cancer cells (PC3 cells overexpressing the surface protein Steap-1) were seeded on day 1 at a density of 200,000 cells/mL in 45 μl/well in cell plates in a 384 well Greiner/Perkin Elmer Cell Carrier TC Treated plate (part #6007430) in Assay Medium (RPMI, 10% FBS, 2 mM Glutamax). Cells were incubated overnight at 37° C. degrees. On day 2, compounds were serially diluted 3-fold in DMSO spanning the concentrations 10 mM to 8.6 nM, in 384 well clear polypropylene plates (Greiner Cat #781201). DMSO and 10 mM of a control PROTAC (dBET1, as described in WO 2017/024317, p. 235, structure below) (control compound) were added to designated wells. Compounds and controls were diluted 50-fold (2 μl of DMSO stock into 98 μl) into Assay Medium. 5 μl of the diluted compounds was transferred to the cell plates. The final top concentration of the test compounds in the cell plates was 20 μM. Cell plates were incubated at 37° C., for 4 hours. Fixation and permeabilization were carried out using a Biotek EL406 plate washer and dispenser as follows. Cells were fixed by addition of 15 μL of 16% paraformaldehyde (Electron Microscopy Sciences #15710-S) directly to the 50 μL cell culture medium in each well using the peristaltic pump 5 μL cassette on a Biotek EL406 (final concentration of formaldehyde was 3.7% w/v). Samples were incubated 30 minutes. Well contents were aspirated and 50 μL/well of Phosphate Buffered Saline (PBS) containing 0.5% w/v bovine serum albumen, 0.5% v/v Triton X-100 (Antibody Dilution Buffer) was added to each well. Samples were incubated for 30 minutes. Well contents were aspirated and washed 3 times with 100 μL/well of PBS.
EOL-1 cells: The BRD4 degradation assay was performed on EOL-1 cells using the same procedure as described above for PC3 (Steap-1) prostate cancer cells, except EOL-1 cells were seeded at 1,000,000 cells/mL. Following aspiration and washing of the well contents with 100 μL/well of PBS, 40 μL PBS plus 10% normal goat serum was added per well for 20 minutes at room temperature.
For both the PC3 and EOL-1 cell assays, immunofluorescence staining of BRD4 was carried out using a Biotek EL406 plate washer and dispenser as follows. The well supernatant was aspirated from the wells and 25 μL/well of rabbit mAb Anti-BRD4 [EPR5150(2)] abeam 128874 diluted 1:500 in Antibody Dilution Buffer is dispensed. Samples were incubated for 2 hours at room temperature. Samples were washed 4 times with 100 μL/well of PBS. 25 μL/well of secondary antibody solution (Goat Anti-Rabbit IgG, DyLight 488 Conjugated Highly Cross-adsorbed #35553 1:1000) diluted 1:1000 and Hoechst 33342 1 μg/ml diluted in Antibody Dilution Buffer) were dispensed into each well. 16 wells of the plate, which were designated as ‘no primary antibody” wells, received only Antibody Dilution Buffer (without anti-BRD4 antibody). Samples were incubated for 2 hours at room temperature. Samples were washed 3 times with 100 μL/well of PBS using a Biotek EL406. Quantitative fluorescence imaging of BRD4 was carried out using a Phenix (Perkin Elmer). Fluorescence images of the samples (Channel 1: Hoechst33342 (DNA stain); Channel 2: 488 nm (BRD4 stain)) were acquired. Channel 1 (DNA stain) was used to define the “Region of Interest” (ROI) nuclear region. Measurements of BRD4 average immunofluorescence intensity within the ROI (nuclear region), were made on a per cell basis and averaged over all the measured cells. Data analysis was carried out using Genedata Screener Software, with DMSO and “no primary antibody” samples being used to define the 0% and 100% changes in BRD4. The “Robust Fit” method was used to define the inflexion point of curve (EC50) and the plateau of the maximal effect (Sinf). The Sinf value reports degradation as percent change in protein level, so complete loss of the protein target is −100%. […]

VHL Elongin B/C complex = VHL Elongin B/C complex (Homo sapiens (Human), UniProt P40337); experiment: Fluorescence Polarization (FP) VHL Binding Assay; settings: VHL binding, FP assay; geometric mean where more than one measurement
Summary of the method: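 Readout is polarization of a TAMRA-coupled VHL ligand (1.67 nM final) displaced from the VHL(E55-D213)/Elongin B/C complex (2.64 nM final) after 1 h incubation at room temperature in pH 8.0 Tris buffer with 1% DMSO. Data normalized to no-VHL and compound-free controls, with compound fluorescence subtracted, and fitted by four-parameter curve for IC50.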

[1] = target: VHL co-expressed with Elongins B and C (Homo sapiens (Human), UniProt P40337); experiment: Surface Plasmon Resonance Assay; assay type: binding; settings: SPR measured VHL affinity; geometric mean where more than one measurement
Summary of the method: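 Binding kinetics by SPR at 20 °C: compound concentration series run from low to high at 80 μL/min over VHL–Elongin B/C complex, immobilized via avidin tag on SA chip. Buffer was HEPES pH 7.2 with 150 mM NaCl, TCEP, Tween 20, PEG3350 and 2% DMSO; association/dissociation times adjusted per compound.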

[2] = target: NanoLuc VHL fusion protein (Homo sapiens (Human), UniProt P40337); experiment: VHL HEK-293 BRET Assay (NanoBRET Target Engagement); assay type: cell-based; settings: geometric mean where more than one measurement
Summary of the method: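 HEK293 cells stably expressing NanoLuc-VHL, 2 h with compound titration and 1 uM final tracer, then Nano-Glo substrate plus extracellular NanoLuc inhibitor. BRET ratio 610/460 nm, background-corrected with no-tracer wells, normalised to DMSO and 10 uM unlabeled VHL antagonist controls; IC50 by four-parameter fit.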

Chain of VHL Elongin B/C complex (P40337 whole entry, looked up): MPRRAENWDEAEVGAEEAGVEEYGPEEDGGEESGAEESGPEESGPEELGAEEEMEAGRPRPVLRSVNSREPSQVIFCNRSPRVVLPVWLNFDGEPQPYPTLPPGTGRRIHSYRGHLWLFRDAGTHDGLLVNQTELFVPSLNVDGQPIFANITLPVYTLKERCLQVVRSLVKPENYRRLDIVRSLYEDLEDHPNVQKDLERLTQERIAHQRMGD
Chain of VHL Elongin B/C complex (Q15370 whole entry partner, looked up): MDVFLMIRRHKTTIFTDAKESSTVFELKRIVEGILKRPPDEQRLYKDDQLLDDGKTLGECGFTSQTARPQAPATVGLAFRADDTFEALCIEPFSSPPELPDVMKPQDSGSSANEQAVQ
Chain of VHL Elongin B/C complex (Q15369 whole entry partner, looked up): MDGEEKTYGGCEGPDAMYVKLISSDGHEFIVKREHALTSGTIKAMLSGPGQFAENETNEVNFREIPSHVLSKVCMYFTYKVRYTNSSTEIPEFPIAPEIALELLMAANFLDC
Chain of VHL co-expressed with Elongins B and C (P40337 whole entry, looked up): as the sequence (P40337 whole entry, looked up) above
Chain of VHL co-expressed with Elongins B and C (Q15370 whole entry partner, looked up): as the sequence (Q15370 whole entry partner, looked up) above
Chain of VHL co-expressed with Elongins B and C (Q15369 whole entry partner, looked up): as the sequence (Q15369 whole entry partner, looked up) above
Chain of NanoLuc VHL fusion protein (P40337 whole entry, looked up, the tested form may be a part): as the sequence (P40337 whole entry, looked up) above
Chain of NanoLuc VHL fusion protein (Q15370 whole entry partner, looked up, the tested form may be a part): as the sequence (Q15370 whole entry partner, looked up) above
Chain of NanoLuc VHL fusion protein (Q15369 whole entry partner, looked up, the tested form may be a part): as the sequence (Q15369 whole entry partner, looked up) above

DC50 (BRD4) [nM]	IC50 (MYC expression; 4 h) [nM]	Structure (SMILES)	Maximum Inhibition (%) (MYC expression; 4 h)	other results
–	80.4	Cc1ncsc1-c1ccc(C2(C)NC(C3C[C@@H](O)CN3C(=O)C(c3cc(OCCN4CC[C@H](NC(=O)c5cc6c(cc5CS(C)(=O)=O)-c5cn(C)c(=O)c7[nH]cc(c57)CN6c5ncc(F)cc5F)C4)no3)C(C)C)=NC2=O)cc1 (single isomer, unassigned) [Example 1002.4]	69.9	–
1.02	–	Cc1ncsc1-c1ccc([C@]2(C)NC([C@@H]3C[C@@H](O)CN3C(=O)C(NC(=O)CCCCCCCCCCNC(=O)c3cc4c(cc3CS(C)(=O)=O)-c3cn(C)c(=O)c5[nH]cc(c35)CN4c3ncc(F)cc3F)C(C)(C)C)=NO2)cc1 (single isomer, unassigned) [Example 1006.1]	–	EOL-1 Sinf (%) (BRD4): −92.6%

More lines, now with the values behind:

Structure (SMILES)	DC50 (BRD4) [nM]	IC50 (MYC expression; 4 h) [nM]	Maximum Inhibition (%) (MYC expression; 4 h)	other results
Cc1ncsc1-c1ccc(C2(C)NC(C3C[C@@H](O)CN3C(=O)C(c3cc(OCCN4CC[C@H](NC(=O)c5cc6c(cc5CS(C)(=O)=O)-c5cn(C)c(=O)c7[nH]cc(c57)CN6c5ncc(F)cc5F)C4)no3)C(C)C)=NC2=O)cc1 (single isomer, unassigned) [Example 1002.3]	–	–	69.8	IC50 (MYC expression; Homo sapiens, MV4-11, 4 h): 123 nM
Cc1ncsc1-c1ccc(C2(C)NC(C3C[C@@H](O)CN3C(=O)C(c3cc(OCCN4CC[C@H](NC(=O)c5cc6c(cc5CS(C)(=O)=O)-c5cn(C)c(=O)c7[nH]cc(c57)CN6c5ncc(F)cc5F)C4)no3)C(C)C)=NC2=O)cc1 (single isomer, unassigned) [Example 1002.2]	0.31	25.7	90.3	EOL-1 Sinf (%) (BRD4): −65.0%
Cc1ncsc1-c1ccc(C2(C)NC(C3C[C@@H](O)CN3C(=O)C(c3cc(OCCN4CC[C@H](NC(=O)c5cc6c(cc5CS(C)(=O)=O)-c5cn(C)c(=O)c7[nH]cc(c57)CN6c5ncc(F)cc5F)C4)no3)C(C)C)=NC2=O)cc1 (single isomer, unassigned) [Example 1002.1]	> 20000	51.5	76.4	–
Cc1ncsc1-c1ccc([C@]2(C)NC(C3C[C@@H](O)CN3C(=O)C(c3cc(OCCCCCNC(=O)c4cc5c(cc4CS(C)(=O)=O)-c4cn(C)c(=O)c6[nH]cc(c46)CN5c4ncc(F)cc4F)no3)C(C)C)=NC2=O)cc1 (single isomer, unassigned) [Example 1001.4]	–	26.1	75.7	IC50 (VHL Elongin B/C complex): > 100 µM
Cc1cc([C@H](C(=O)N2C[C@H](O)C[C@H]2C2=NOC3(CCCC3)N2)C(C)C)on1 [Example 127.2, (R)-1-((2S,4R)-4-hydroxy-2-(1-oxa-2,4-diazaspiro[4.4]non-2-en-3-yl)pyrrolidin-1-yl)-3-methyl-2-(3-methylisoxazol-5-yl)butan-1-one]	–	–	–	Kd [1]: 16.4 µM; IC50 [2]: 73.2 µM; IC50 (VHL Elongin B/C complex): 50.8 µM
